Earlier results in patent US20070059365A1, “Novel formulation of ropinirole” (priority 2003, published 2007).

Settings: in vivo

In the case of `CCCN(CCC)CCc1cccc2c1CC(=O)N2.Cl` [ropinirole, 4-(2-di-n-propylaminoethyl)-2(3H)-indolone hydrochloride], the half-life of ropinirole is listed as 5 to 6 h.
